According to PubChem BioAssay AID1919004 (Molecular Pharmacology Branch, DTP, NCI, 2023):
“And” between values parts separate entries of the source, which are not always exact repeats. Identical values can stand only once. Blank lines part the entries; values can stand above or below the compound they belong to.

Tested on: 883617-216-R-J1-PDC complex spheroids, growth, % test/control
Test: Anticancer human tumor 883617-216-R-J1-PDC patient-derived bladder carcinoma cell line growth inhibition [AhR]
Settings: for viability, T/C: stronger effect = lower value
How it was run: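 Agents were dosed in half-log steps down from roughly clinical Cmax, or from 10 microM where Cmax was unknown, alone and with AhR antagonists. Read-out: percent test/control growth of tumor spheroids containing HUVEC and MSC stromal cells.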

[1] = curve of first compound, second compound 0.1 µM
[2] = curve of first compound, second compound 0.316 µM
[3] = curve of first compound, second compound 1 µM
[4] = curve of first compound, second compound 3.16 µM
[5] = curve of first compound, second compound 10 µM
[6] = second compound 0.1 µM, first compound 0.0316 µM
[7] = second compound 0.1 µM, first compound 0.1 µM
[8] = second compound 0.1 µM, first compound 0.316 µM
[9] = second compound 0.1 µM, first compound 1 µM
[10] = second compound 0.1 µM, first compound 3.16 µM
[11] = second compound 0.1 µM, first compound 10 µM
[12] = second compound 0.316 µM, first compound 0.0316 µM
[13] = second compound 0.316 µM, first compound 0.1 µM
[14] = second compound 0.316 µM, first compound 0.316 µM
[15] = second compound 0.316 µM, first compound 1 µM
[16] = second compound 0.316 µM, first compound 3.16 µM
[17] = second compound 0.316 µM, first compound 10 µM
[18] = second compound 1 µM, first compound 0.0316 µM
[19] = second compound 1 µM, first compound 0.1 µM
[20] = second compound 1 µM, first compound 0.316 µM
[21] = second compound 1 µM, first compound 1 µM
[22] = second compound 1 µM, first compound 3.16 µM
[23] = second compound 1 µM, first compound 10 µM
[24] = second compound 3.16 µM, first compound 0.0316 µM
[25] = second compound 3.16 µM, first compound 0.1 µM
[26] = second compound 3.16 µM, first compound 0.316 µM
[27] = second compound 3.16 µM, first compound 1 µM
[28] = second compound 3.16 µM, first compound 3.16 µM
[29] = second compound 3.16 µM, first compound 10 µM
[30] = second compound 10 µM, first compound 0.0316 µM
[31] = second compound 10 µM, first compound 0.1 µM
[32] = second compound 10 µM, first compound 0.316 µM
[33] = second compound 10 µM, first compound 1 µM
[34] = second compound 10 µM, first compound 3.16 µM
[35] = second compound 10 µM, first compound 10 µM
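Also: exposure lasted 7 days after dosing on day 3 of spheroid growth.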

Compound: CCN(c1cc(-c2ccc(CN3CCOCC3)cc2)cc(C(=O)NCc2c(C)cc(C)[nH]c2=O)c1C)C1CCOCC1
viability, T/C (compound 0.00949 µM): 95.9% and 98.2% and 103%
viability, T/C (compound 0.03 µM): 89.1% and 111% and 60.8%
viability, T/C (compound 0.0949 µM): 106% and 89.9% and 90.6%
viability, T/C (compound 0.3 µM): 105% and 95.1% and 99.1%
viability, T/C (compound 0.949 µM): 104% and 115% and 88.1%
viability, T/C (compound 3 µM): 95.5% and 93.6% and 130%
IC50 (curve of compound): > 3 µM

Compound: Nc1ccn(C2OC(CO)C(O)C2(F)F)c(=O)n1 (configuration not stated) + Cc1cncc(-c2nc(NCCc3c[nH]c4ccccc34)c3ncn(C(C)C)c3n2)c1
IC50 [1]: < 0.0316 µM
IC50 [2]: < 0.0316 µM
IC50 [3]: < 0.0316 µM
IC50 [4]: 0.0708 µM
IC50 [5]: < 0.0316 µM
viability, T/C [6]: 32.6%
viability, T/C [7]: 39.7%
viability, T/C [8]: 43.1%
viability, T/C [9]: 41.3%
viability, T/C [10]: 44%
viability, T/C [11]: 38.9%
viability, T/C [12]: 34.5%
viability, T/C [13]: 38.8%
viability, T/C [14]: 44.9%
viability, T/C [15]: 38.4%
viability, T/C [16]: 39.5%
viability, T/C [17]: 39.4%
viability, T/C [18]: 46.1%
viability, T/C [19]: 33.8%
viability, T/C [20]: 39.3%
viability, T/C [21]: 37.5%
viability, T/C [22]: 41.9%
viability, T/C [23]: 43.4%
viability, T/C [24]: 71.3%
viability, T/C [25]: 39.3%
viability, T/C [26]: 40.6%
viability, T/C [27]: 41.2%
viability, T/C [28]: 43.5%
viability, T/C [29]: 39.1%
viability, T/C [30]: 33.1%
viability, T/C [31]: 16.4%
viability, T/C [32]: 13.5%
viability, T/C [33]: 10.9%
viability, T/C [34]: 15.8%
viability, T/C [35]: 18%

Compound: COc1cc(C2c3cc4c(cc3C(OC3OC5COC(C)OC5C(O)C3O)C3COC(=O)C23)OCO4)cc(OC)c1O (configuration not stated) + CC(CO)NC(=O)c1cc(-c2ccc(Cl)cc2)nn(-c2cnn(C)c2)c1=O
IC50 [1]: > 10 µM
IC50 [2]: > 10 µM
IC50 [3]: > 10 µM
IC50 [4]: > 10 µM
IC50 [5]: > 10 µM
viability, T/C [6]: 75.2%
viability, T/C [7]: 90.2%
viability, T/C [8]: 108%
viability, T/C [9]: 66.3%
viability, T/C [10]: 84.1%
viability, T/C [11]: 60.1%
viability, T/C [12]: 63.8%
viability, T/C [13]: 84.5%
viability, T/C [14]: 85.3%
viability, T/C [15]: 67.7%
viability, T/C [16]: 101%
viability, T/C [17]: 69.4%
viability, T/C [18]: 60.3%
viability, T/C [19]: 76.7%
viability, T/C [20]: 90%
viability, T/C [21]: 83.5%
viability, T/C [22]: 84.3%
viability, T/C [23]: 53.3%
viability, T/C [24]: 81.1%
viability, T/C [25]: 85.8%
viability, T/C [26]: 74.3%
viability, T/C [27]: 69.3%
viability, T/C [28]: 65%
viability, T/C [29]: 102%
viability, T/C [30]: 91.7%
viability, T/C [31]: 70.8%
viability, T/C [32]: 89.6%
viability, T/C [33]: 81.3%
viability, T/C [34]: 53.5%
viability, T/C [35]: 77.3%

Now from value to compound, other results behind:

IC50 [1]: > 10 µM
IC50 [2]: > 10 µM
IC50 [3]: > 10 µM
IC50 [4]: > 10 µM
IC50 [5]: > 10 µM
Compound: CC(C)c1c(-c2ccccc2)nc2c(C#N)c[nH]n2c1=O + Cc1ccccc1N=Nc1ccc(NC(=O)c2ccnn2C)c(C)c1
viability, T/C [6]: 91.7%
viability, T/C [7]: 101%
viability, T/C [8]: 85.9%
viability, T/C [9]: 103%
viability, T/C [10]: 101%
viability, T/C [11]: 93.7%
viability, T/C [12]: 99.1%
viability, T/C [13]: 94.6%
viability, T/C [14]: 86.6%
viability, T/C [15]: 93.9%
viability, T/C [16]: 86%
viability, T/C [17]: 91.1%
viability, T/C [18]: 84%
viability, T/C [19]: 85%
viability, T/C [20]: 87.7%
viability, T/C [21]: 84.8%
viability, T/C [22]: 91%
viability, T/C [23]: 91.6%
viability, T/C [24]: 87.7%
viability, T/C [25]: 89.6%
viability, T/C [26]: 72.8%
viability, T/C [27]: 84.5%
viability, T/C [28]: 82.9%
viability, T/C [29]: 77.7%
viability, T/C [30]: 75.4%
viability, T/C [31]: 78.3%
viability, T/C [32]: 82.1%
viability, T/C [33]: 79.3%
viability, T/C [34]: 75.9%
viability, T/C [35]: 82.9%

IC50 [1]: > 3 µM
IC50 [2]: > 3 µM
IC50 [3]: > 3 µM
IC50 [4]: > 3 µM
IC50 [5]: < 0.00949 µM
Compound: CCN(c1cc(-c2ccc(CN3CCOCC3)cc2)cc(C(=O)NCc2c(C)cc(C)[nH]c2=O)c1C)C1CCOCC1 + Cc1cncc(-c2nc(NCCc3c[nH]c4ccccc34)c3ncn(C(C)C)c3n2)c1
viability, T/C (second compound 0.1 µM, first compound 0.00949 µM): 93.3%
viability, T/C (second compound 0.1 µM, first compound 0.03 µM): 109%
viability, T/C (second compound 0.1 µM, first compound 0.0949 µM): 94.1%
viability, T/C (second compound 0.1 µM, first compound 0.3 µM): 96.6%
viability, T/C (second compound 0.1 µM, first compound 0.949 µM): 98.2%
viability, T/C (second compound 0.1 µM, first compound 3 µM): 91.6%
viability, T/C (second compound 0.316 µM, first compound 0.00949 µM): 103%
viability, T/C (second compound 0.316 µM, first compound 0.03 µM): 94.4%
viability, T/C (second compound 0.316 µM, first compound 0.0949 µM): 97.1%
viability, T/C (second compound 0.316 µM, first compound 0.3 µM): 96.2%
viability, T/C (second compound 0.316 µM, first compound 0.949 µM): 98.6%
viability, T/C (second compound 0.316 µM, first compound 3 µM): 96.4%
viability, T/C (second compound 1 µM, first compound 0.00949 µM): 103%
viability, T/C (second compound 1 µM, first compound 0.03 µM): 102%
viability, T/C (second compound 1 µM, first compound 0.0949 µM): 110%
viability, T/C (second compound 1 µM, first compound 0.3 µM): 105%
viability, T/C (second compound 1 µM, first compound 0.949 µM): 97.8%
viability, T/C (second compound 1 µM, first compound 3 µM): 107%
viability, T/C (second compound 3.16 µM, first compound 0.00949 µM): 93.7%
viability, T/C (second compound 3.16 µM, first compound 0.03 µM): 102%
viability, T/C (second compound 3.16 µM, first compound 0.0949 µM): 112%
viability, T/C (second compound 3.16 µM, first compound 0.3 µM): 96.5%
viability, T/C (second compound 3.16 µM, first compound 0.949 µM): 107%
viability, T/C (second compound 3.16 µM, first compound 3 µM): 110%
viability, T/C (second compound 10 µM, first compound 0.00949 µM): 52.3%
viability, T/C (second compound 10 µM, first compound 0.03 µM): 46.9%
viability, T/C (second compound 10 µM, first compound 0.0949 µM): 47.2%
viability, T/C (second compound 10 µM, first compound 0.3 µM): 43.2%
viability, T/C (second compound 10 µM, first compound 0.949 µM): 27.3%
viability, T/C (second compound 10 µM, first compound 3 µM): 15.5%

IC50 [1]: > 10 µM
IC50 [2]: > 10 µM
IC50 [3]: > 10 µM
IC50 [4]: > 10 µM
IC50 [5]: > 10 µM
Compound: O=C(c1cc(Cc2n[nH]c(=O)c3ccccc23)ccc1F)N1CCN(C(=O)C2CC2)CC1 + CC(CO)NC(=O)c1cc(-c2ccc(Cl)cc2)nn(-c2cnn(C)c2)c1=O
viability, T/C [6]: 107%
viability, T/C [7]: 109%
viability, T/C [8]: 78.8%
viability, T/C [9]: 124%
viability, T/C [10]: 118%
viability, T/C [11]: 80.2%
viability, T/C [12]: 80%
viability, T/C [13]: 114%
viability, T/C [14]: 115%
viability, T/C [15]: 92.3%
viability, T/C [16]: 72.4%
viability, T/C [17]: 87.1%
viability, T/C [18]: 122%
viability, T/C [19]: 124%
viability, T/C [20]: 111%
viability, T/C [21]: 104%
viability, T/C [22]: 137%
viability, T/C [23]: 97%
viability, T/C [24]: 120%
viability, T/C [25]: 88.5%
viability, T/C [26]: 85.5%
viability, T/C [27]: 105%
viability, T/C [28]: 119%
viability, T/C [29]: 82.3%
viability, T/C [30]: 126%
viability, T/C [31]: 84.7%
viability, T/C [32]: 128%
viability, T/C [33]: 98.9%
viability, T/C [34]: 64.2%
viability, T/C [35]: 104%
